Data as given in publication PMC10952572, “Improved PIEZO1 agonism through 4‐benzoic acid modification of Yoda1” (British Journal of Pharmacology, 2023).

Experiments:
hPIEZO1 = biological target: T1, hPIEZO1 (Homo sapiens, UniProt Q92508); experiment: Intracellular Ca2+ measurement (Fura-2) in hPIEZO1-TREx cells; format: cell-based; details: for Peak ΔCa2+i (ΔF340/380), median fold difference compared to Yoda1: 10 μM compound, hPIEZO1-TREx cells, paired with 10 μM Yoda1; for Ability to evoke intracellular Ca2+ elevation: 10 μM, cells overexpressing hPIEZO1, compared with Yoda1
T1 construct: expressed in transfected cells
T1 sequence (Q92508 whole entry): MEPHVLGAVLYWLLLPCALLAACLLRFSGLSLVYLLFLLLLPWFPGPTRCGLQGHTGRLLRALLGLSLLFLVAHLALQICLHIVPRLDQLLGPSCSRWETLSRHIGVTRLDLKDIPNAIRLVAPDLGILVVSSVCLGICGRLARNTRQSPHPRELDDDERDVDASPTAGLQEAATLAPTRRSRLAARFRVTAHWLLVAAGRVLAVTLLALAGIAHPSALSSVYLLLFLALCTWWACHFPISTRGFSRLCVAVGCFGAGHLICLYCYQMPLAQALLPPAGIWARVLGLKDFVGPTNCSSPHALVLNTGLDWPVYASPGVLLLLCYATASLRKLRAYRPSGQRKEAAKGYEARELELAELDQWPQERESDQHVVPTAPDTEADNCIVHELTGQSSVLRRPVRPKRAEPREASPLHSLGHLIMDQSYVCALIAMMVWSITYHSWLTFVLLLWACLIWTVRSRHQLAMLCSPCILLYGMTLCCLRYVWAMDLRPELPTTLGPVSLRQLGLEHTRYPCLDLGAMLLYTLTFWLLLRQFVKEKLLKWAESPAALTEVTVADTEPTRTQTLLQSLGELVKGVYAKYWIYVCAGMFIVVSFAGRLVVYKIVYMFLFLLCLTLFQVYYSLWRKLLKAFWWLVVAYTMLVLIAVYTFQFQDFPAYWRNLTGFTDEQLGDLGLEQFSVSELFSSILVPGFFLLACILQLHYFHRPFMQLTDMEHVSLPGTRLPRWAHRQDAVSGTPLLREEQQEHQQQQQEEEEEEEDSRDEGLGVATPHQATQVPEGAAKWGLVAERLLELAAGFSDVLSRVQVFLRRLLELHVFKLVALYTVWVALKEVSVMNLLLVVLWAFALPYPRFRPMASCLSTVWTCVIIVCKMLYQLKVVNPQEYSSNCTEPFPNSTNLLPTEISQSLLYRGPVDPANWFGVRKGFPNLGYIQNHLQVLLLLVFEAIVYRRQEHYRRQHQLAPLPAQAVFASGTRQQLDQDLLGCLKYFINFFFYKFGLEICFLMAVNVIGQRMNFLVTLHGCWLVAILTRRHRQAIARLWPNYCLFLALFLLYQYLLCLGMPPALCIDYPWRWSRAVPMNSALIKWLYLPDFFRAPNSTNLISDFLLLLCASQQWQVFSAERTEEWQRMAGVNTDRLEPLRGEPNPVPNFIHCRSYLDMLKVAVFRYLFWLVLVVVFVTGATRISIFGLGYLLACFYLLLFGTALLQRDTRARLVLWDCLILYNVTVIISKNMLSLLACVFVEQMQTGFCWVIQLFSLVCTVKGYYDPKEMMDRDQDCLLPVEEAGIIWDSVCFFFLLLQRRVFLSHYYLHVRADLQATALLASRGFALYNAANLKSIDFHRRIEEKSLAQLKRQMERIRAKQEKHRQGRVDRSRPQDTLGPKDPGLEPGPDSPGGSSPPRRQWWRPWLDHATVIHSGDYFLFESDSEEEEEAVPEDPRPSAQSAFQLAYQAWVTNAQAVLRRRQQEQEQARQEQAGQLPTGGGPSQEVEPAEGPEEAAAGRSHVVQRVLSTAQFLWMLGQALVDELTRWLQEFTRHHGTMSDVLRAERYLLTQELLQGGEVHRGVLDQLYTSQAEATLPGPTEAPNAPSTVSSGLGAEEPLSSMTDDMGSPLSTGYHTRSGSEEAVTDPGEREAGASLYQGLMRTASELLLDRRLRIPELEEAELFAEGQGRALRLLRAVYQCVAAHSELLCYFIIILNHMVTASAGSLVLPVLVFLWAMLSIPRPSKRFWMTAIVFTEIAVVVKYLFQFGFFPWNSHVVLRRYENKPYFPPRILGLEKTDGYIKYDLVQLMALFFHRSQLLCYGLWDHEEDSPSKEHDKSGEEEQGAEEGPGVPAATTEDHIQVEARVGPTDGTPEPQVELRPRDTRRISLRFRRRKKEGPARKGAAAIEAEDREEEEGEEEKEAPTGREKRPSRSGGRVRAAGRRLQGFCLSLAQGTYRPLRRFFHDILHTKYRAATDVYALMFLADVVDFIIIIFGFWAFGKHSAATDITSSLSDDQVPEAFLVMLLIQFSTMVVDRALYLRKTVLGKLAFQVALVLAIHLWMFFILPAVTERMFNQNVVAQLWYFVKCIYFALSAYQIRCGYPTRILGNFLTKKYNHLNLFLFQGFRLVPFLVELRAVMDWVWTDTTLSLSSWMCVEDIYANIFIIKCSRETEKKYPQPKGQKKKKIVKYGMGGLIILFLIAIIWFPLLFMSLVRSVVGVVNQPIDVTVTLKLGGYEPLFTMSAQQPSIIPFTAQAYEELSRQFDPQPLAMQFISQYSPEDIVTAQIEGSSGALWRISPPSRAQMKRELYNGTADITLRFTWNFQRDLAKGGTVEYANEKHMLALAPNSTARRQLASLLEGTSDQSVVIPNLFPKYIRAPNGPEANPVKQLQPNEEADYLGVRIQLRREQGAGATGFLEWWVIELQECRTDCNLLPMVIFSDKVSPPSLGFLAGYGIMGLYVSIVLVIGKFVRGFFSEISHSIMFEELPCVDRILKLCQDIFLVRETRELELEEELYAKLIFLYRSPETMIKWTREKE
Description: HEK T‐REx™ 293 cells (Thermo Fisher Cat #R71007, RRID:CVCL_D585) that overexpress hPIEZO1 upon induction with tetracycline were generated as previously described (Rode et al., [2017]). PIEZO1‐GFP was used as a PCR template to clone hPIEZO1 coding sequence into pcDNA™4/TO between HindIII and EcoRI restriction sites. PIEZO1 was amplified as two fragments using the following primers: (HindIII‐PIEZO1‐Fw: […] and BamHI‐Int.PIEZO1‐Rv: […]) and (BamHI‐Int. PIEZO1‐Fw: […] and EcoRI‐PIEZO1‐Rv: […]). The two fragments were fused using BamHI restriction site, resulting in the full‐length PIEZO1 coding sequence with the c4182a silent mutation. HEK T‐REx™ 293 cells (Invitrogen) were transfected with pcDNA4/TO‐PIEZO1 using Lipofectamine 2000 (Thermo Fisher Scientific). Subsequently, cells were treated with 10 μg·ml^−1 blasticidin and 200 μg·ml^−1 zeocin (InvivoGen) to select stably transfected cells. Single‐cell clones were isolated and analysed individually. Expression was induced by treating the cells for 24 h with 10 ng·ml^−1 tetracycline and analysed by quantitative RT‐PCR and Western blot. These cells are referred to as hPIEZO1‐TREx.
HEK 293‐TREx cells and their stably transfected derivatives or transiently transfected HEK 293 or HeLa cells were seeded at a density of 7.5 × 10^4 cells per well into poly‐D‐lysine‐coated 96‐well plates. The plates were either commercially pre‐coated with poly‐D‐lysine (Greiner Bio‐One #655946) or (Greiner Bio‐One #655090) were coated in‐house with 35 μl of a 10 μg·ml^−1 poly‐D‐lysine (Bio‐Techne, Cultrex # 3439‐100‐01) in sterile deionised water per well for at least 24 h and rinsed three times with 100 μl per well sterile D‐PBS before addition of cells. HUVECs were seeded into tissue culture‐treated 96‐well plates (Greiner Bio‐One #655090) at a density of either 2.5 × 10^4 cells 24 h before experimentation or 1.25 × 10^4 cells 48 h before experimentation. Cells were incubated with 2 μM Fura‐2‐AM (Molecular Probes™) in the presence of 0.01% (wt./vol.) pluronic F127 (Sigma‐Aldrich #P2443) in standard bath solution (SBS) for 1 h at 37°C. Cells were washed with SBS for 30 min at room temperature. Alternatively, if inhibitors were being tested, these were added at this time, immediately following a wash in SBS. (−)‐Englerin A (Akbulut et al., [2015]) was used in SBS containing 0.01% pluronic acid as a dispersing agent to minimise aggregation of compound. Unless otherwise stated, the final concentration of DMSO was 0.2% (vol./vol). Working 2000× stock solutions of test compounds were freshly made in DMSO and diluted 1000‐fold in SBS during the 30 min SBS wash/inhibitor pre‐incubation period to obtain 2× solutions for injection. When testing the highest concentration of Yoda1, KC159 and KC289 (30 μM), the final DMSO concentration was 0.6% (vol./vol.). Measurements were made at room temperature on a 96‐well fluorescence plate reader (FlexStation 3, Molecular Devices, Sunnyvale, CA, USA) controlled by SoftMax Pro software v7.0.3. Recipient wells containing 80 μl SBS/0.2% (vol./vol.) DMSO vehicle or inhibitor compound received 80 μl 2× compound at an injection rate of 1 μl·s^−1, and the pipette introduced liquids from a height setting of 70 μl. No trituration was performed. For recordings using Fura‐2, the change in intracellular Ca was indicated as the ratio of Fura‐2 emission (510 nm) intensities at 340 and 380 nm excitation. Photomultipliers were set to medium sensitivity. SBS contained 130 mM NaCl, 5 mM KCl, 8 mM D‐glucose, 10 mM HEPES, 1.2 mM MgCl2 and 1.5 mM CaCl2, and the pH was adjusted to 7.4 with NaOH. The solution was filtered through a 0.2 μm bottle‐top filter prior to use and handled aseptically thereafter.
For intracellular Ca^2+ (Ca^2+i) measurements, technical intra‐experiment replicates were used to improve confidence in the data. Analysis of individual experiments was performed to obtain mean ± SEM values. […]

mPIEZO1 = biological target: T2, mPIEZO1 (Mus musculus, UniProt E2JF22); experiment: Pre-treatment with analogue before Yoda1 stimulus, Ca2+ assay in mPIEZO1-TREx cells; format: cell-based; details: for 0.5 μM Yoda1-evoked peak ΔCa2+i (ΔF340/380), median fold difference compared to DMSO pretreatment: mPIEZO1-TREx, 10 μM compound 30 min pretreatment before 0.5 μM Yoda1
T2 construct: expressed in transfected cells
T2 sequence (E2JF22 whole entry): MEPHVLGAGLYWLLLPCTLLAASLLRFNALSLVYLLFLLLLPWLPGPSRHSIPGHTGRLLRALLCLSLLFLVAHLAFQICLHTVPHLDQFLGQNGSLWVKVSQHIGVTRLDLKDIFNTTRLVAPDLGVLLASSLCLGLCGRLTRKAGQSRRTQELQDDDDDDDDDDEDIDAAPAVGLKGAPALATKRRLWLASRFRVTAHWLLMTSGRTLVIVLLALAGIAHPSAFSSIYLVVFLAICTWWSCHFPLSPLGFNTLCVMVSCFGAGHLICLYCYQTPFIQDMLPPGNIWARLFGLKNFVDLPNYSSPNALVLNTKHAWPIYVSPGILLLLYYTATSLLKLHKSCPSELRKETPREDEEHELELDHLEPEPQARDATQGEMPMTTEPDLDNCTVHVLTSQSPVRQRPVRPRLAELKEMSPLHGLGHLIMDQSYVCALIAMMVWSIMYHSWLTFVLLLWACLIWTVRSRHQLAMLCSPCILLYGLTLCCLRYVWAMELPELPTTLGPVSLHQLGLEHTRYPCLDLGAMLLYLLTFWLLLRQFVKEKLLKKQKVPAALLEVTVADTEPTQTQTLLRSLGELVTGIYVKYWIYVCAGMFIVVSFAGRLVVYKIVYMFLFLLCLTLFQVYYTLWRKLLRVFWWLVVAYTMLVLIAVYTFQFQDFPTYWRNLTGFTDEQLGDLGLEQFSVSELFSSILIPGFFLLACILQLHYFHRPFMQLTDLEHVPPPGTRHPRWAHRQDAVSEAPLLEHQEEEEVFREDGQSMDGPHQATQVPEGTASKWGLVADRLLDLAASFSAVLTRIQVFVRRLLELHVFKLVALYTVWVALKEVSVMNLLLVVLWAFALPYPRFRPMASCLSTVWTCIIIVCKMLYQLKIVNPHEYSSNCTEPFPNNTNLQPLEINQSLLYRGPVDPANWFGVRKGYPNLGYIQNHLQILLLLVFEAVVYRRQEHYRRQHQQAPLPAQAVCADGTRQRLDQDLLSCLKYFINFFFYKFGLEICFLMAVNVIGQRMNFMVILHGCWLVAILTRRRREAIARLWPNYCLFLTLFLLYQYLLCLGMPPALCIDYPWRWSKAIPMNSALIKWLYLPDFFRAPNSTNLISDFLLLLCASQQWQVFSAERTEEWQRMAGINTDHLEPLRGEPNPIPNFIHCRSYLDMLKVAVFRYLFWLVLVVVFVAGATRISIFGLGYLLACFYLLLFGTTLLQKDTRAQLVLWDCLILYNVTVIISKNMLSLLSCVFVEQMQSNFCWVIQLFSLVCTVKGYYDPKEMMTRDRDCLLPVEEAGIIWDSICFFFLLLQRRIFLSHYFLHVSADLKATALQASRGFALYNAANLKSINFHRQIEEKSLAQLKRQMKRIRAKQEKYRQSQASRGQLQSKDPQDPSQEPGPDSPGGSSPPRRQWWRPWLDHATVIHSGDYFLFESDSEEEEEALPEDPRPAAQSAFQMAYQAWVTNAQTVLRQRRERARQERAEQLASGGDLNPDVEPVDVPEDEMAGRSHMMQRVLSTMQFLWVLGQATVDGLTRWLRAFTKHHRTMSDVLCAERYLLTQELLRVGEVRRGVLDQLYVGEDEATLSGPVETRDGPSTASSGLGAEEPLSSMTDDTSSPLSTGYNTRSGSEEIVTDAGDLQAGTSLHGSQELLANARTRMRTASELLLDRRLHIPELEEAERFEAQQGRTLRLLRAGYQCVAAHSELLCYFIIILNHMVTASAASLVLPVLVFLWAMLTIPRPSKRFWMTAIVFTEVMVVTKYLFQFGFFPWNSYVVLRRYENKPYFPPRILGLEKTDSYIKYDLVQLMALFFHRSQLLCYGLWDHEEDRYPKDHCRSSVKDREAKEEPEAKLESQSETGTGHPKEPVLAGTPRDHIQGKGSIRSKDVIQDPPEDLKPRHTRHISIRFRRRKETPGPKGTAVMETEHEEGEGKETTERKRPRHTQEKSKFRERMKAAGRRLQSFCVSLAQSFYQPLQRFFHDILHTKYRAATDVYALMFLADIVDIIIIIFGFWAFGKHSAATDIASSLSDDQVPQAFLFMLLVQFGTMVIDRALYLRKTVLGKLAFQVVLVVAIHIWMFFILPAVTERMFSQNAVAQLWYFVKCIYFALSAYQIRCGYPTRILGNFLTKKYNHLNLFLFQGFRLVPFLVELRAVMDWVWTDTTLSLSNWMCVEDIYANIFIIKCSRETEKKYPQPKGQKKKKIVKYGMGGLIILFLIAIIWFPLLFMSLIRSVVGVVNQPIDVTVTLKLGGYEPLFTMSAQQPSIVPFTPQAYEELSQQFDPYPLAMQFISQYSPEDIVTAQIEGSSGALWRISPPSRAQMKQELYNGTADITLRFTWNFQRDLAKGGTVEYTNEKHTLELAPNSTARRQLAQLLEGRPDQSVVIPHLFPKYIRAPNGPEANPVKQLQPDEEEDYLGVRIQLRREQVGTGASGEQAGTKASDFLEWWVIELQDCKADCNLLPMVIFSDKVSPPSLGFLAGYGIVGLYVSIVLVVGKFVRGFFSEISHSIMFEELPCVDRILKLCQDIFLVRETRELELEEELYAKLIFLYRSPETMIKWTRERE

Inhibition of the action of Yoda1 (mPIEZO1; mPIEZO1 channels, 10 μM for 30 min prior to Yoda1) | SMILES | Peak ΔCa2+i (ΔF340/380), median fold difference compared to Yoda1 (hPIEZO1) | Ability to evoke intracellular Ca2+ elevation (hPIEZO1) | 0.5 μM Yoda1-evoked peak ΔCa2+i (ΔF340/380), median fold difference compared to DMSO pretreatment (mPIEZO1)
– | O=C([O-])c1ccc(-c2nnc(SCc3c(Cl)cccc3Cl)s2)cc1.[K+] [KC289] | +2.8 fold | robust responses that are larger than those of Yoda1 | −2.8 fold
– | O=C(O)c1ccc(-c2nnc(SCc3c(Cl)cccc3Cl)s2)cc1 [KC159] | +1.8 fold | robust responses that are larger than those of Yoda1 | −2.1 fold
failed to inhibit the action of Yoda1 | O=C(O)c1ccccc1-c1nnc(SCc2c(Cl)cccc2Cl)s1 [KC157] | −24.4 fold | – | +1.2 fold
